Experimental data as given in US7803955B2, “Method for preparing 2,5,7,8-tetramethyl-2-(2′-carboxyethyl)-6-acetoxychroman-precursor- α-CEHC precursor” (Institut Neftekhimii I Kataliza Ran, priority 2005, dated 2010).

Tests used:
[1] = ratio to α-tocopherol; cited from earlier work
[2] = unlike the known diuretics; cited from earlier work
[3] = various model oxidative reactions; compared with α-tocopherol, ascorbic acid, Trolox; cited from earlier work

CC(=O)Oc1c(C)c(C)c2c(c1C)CCC(C)(CCC[C@H](C)CCC[C@H](C)CCCC(C)C)O2 (stereo partly drawn) [α-tocopheryl acetate]
vitamin activity relative to non-acetylated α-tocopherol [1]: 1.47 times

Cc1c(O)cc2c(c1C)OC(C)(CCC(=O)O)CC2 (stereo not shown) [γ-CEHC]
excretion of sodium ions / potassium ions [2]: exclusively selectively promotes the excretion of sodium ions without affecting potassium ions

Cc1c(C)c2c(c(C)c1O)CCC(C)(CCC(=O)O)O2 (stereo not shown) [acid (II), 2,5,7,8-tetramethyl-2-(2′-carboxyethyl)-6-hydroxychroman]
antioxidant activity in vitro [3]: high antioxidant properties comparable with such known preparations as α-tocopherol, ascorbic acid, and the cardioprotective agent Trolox

CC(=O)Oc1c(C)c(C)c2c(c1C)CCC(C)(CCC(=O)O)O2 (stereo not shown) [(V), 2,5,7,8-tetramethyl-2-(2′-carboxyethyl)-6-acetoxychroman]
melting point: 149 to 150 °C
